Laboratory results as given in article PMC11299051 (Molecular informatics, 2023).

Key:
SARS-CoV-2 = settings: in vivo; cited from earlier work
RdRp (Nsp12 domain) = RdRp (Nsp12 domain) (Severe acute respiratory syndrome coronavirus 2, UniProt P0DTD1); assay: biochemical; type: binding, SARS-CoV-2

Compound	binding to Nsp12 (in words) (RdRp (Nsp12 domain))	also measured
Cn1cnc(Cn2c(=O)[nH]/c(=N\c3cc4cn(C)nc4cc3Cl)n(Cc3cc(F)c(F)cc3F)c2=O)n1 [Ensitrelivir]	–	decrease viral clearance (SARS-CoV-2): 50 h
N#C[C@@]1(c2ccc3c(N)ncnn23)O[C@H](COP(=O)(O)OP(=O)(O)OP(=O)(O)O)[C@@H](O)[C@H]1O [GS-443902]	could not detect binding	–
Cc1ccc(C(=O)Nc2ccc(S(=O)(=O)O)c3cc(S(=O)(=O)O)cc(S(=O)(=O)O)c23)cc1NC(=O)c1cccc(NC(=O)Nc2cccc(C(=O)Nc3cc(C(=O)Nc4ccc(S(=O)(=O)O)c5cc(S(=O)(=O)O)cc(S(=O)(=O)O)c45)ccc3C)c2)c1 [Suramin]	–	Kd (RdRp (Nsp12 domain)): 827 ± 306 nM
Cc1ccc(NC(=O)c2ccc(nc2O)C2CC2)c(O)c1	led to Nsp12 aggregation, so no KD could be determined	–
FC(F)(F)c1ccc2nnc(CNC(=O)c3ccc4 C(=O)N5CCC-CCC5=Nc4c3)n2c1	led to Nsp12 aggregation, so no KD could be determined	–
Nc1nnnn1-c1cccc(c1)C(=O)NCc1cc(F)ccc1Oc1ccc(F)c-c(Cl)c1	led to Nsp12 aggregation, so no KD could be determined	–
